Data reported in patent US20090220533A1, “Novel T-Helper Antigenic Determinant (THD) Peptides” (priority 2005, published 2009).
Blank lines part the entries; values can stand above or below the molecule they belong to. No end group written: not given here.

Key:
[1] = target: Class I HLA on the EBV-transformed B cell lines (human); assay: flow cytometry on SWEIG cells; inhibition of the binding of biotinylated p45 (10 uM) by the antibody diluted 1/500
[2] = target: Class I HLA on the EBV-transformed B cell lines (human); assay: flow cytometry on RSH cells; inhibition of the binding of biotinylated p45 (10 uM) by the antibody diluted 1/500
[3] = target: Class I HLA on the EBV-transformed B cell lines (human); assay: flow cytometry on HOM2 cells; inhibition of the binding of biotinylated p45 (10 uM) by the antibody diluted 1/500
[4] = target: Class I HLA on the EBV-transformed B cell lines (human); assay: flow cytometry on BOLETH cells; inhibition of the binding of biotinylated p45 (10 uM) by the antibody diluted 1/500
[5] = target: Class I HLA on the EBV-transformed B cell lines (human); assay: flow cytometry on OLGA cells; inhibition of the binding of biotinylated p45 (10 uM) by the antibody diluted 1/500
[6] = target: Class I HLA on the EBV-transformed B cell lines (human); assay: flow cytometry on MOU cells; inhibition of the binding of biotinylated p45 (10 uM) by the antibody diluted 1/500
HLA-DR4 cell line = target: T1, HLA-DR4 cell line (Homo sapiens, UniProt P01903+P01911, /P40V/Q125Y/R42H/S133A/S149N/S66Y/V115G/V209L/W38E); assay: Direct binding of biotinylated p45 at different concentrations to the HLA-DR4 cell line, fluorescence (FIG. 2); conditions: range of concentrations tested
T1 construct: host or cells: EBV-transformed B lymphocyte line homozygous for HLA-DR4
Protocol: In first place, tests were performed for binding to HLA-DR in the different cell lines, incubated with biotinylated p45 at different concentrations. To avoid the possible crystallization of the peptide, this was solubilized with the aid of a sonicator. […] As can be verified, the peptide binding is dose-dependent in the range of concentrations tested.

HLA-DR = assay: Inhibition of biotinylated p45 binding to cell lines by anti-HLA-DR antibody (L243); parameters: species or system human; conditions: for Percentage of inhibition (%) aDR: biotinylated p45 10 μM
Protocol: (§1) In second place, the HLA-DR4 cell line was incubated in the presence of the biotinylated P45 peptides and antibodies selected due to their specificity to HLA-DR, HLA-DP, HLA-DQ and Class I HLA respectively (FIG. 3).
(§2) In a 96-well plate with U-shaped bottom, the HLA-DR4 cell line was seeded (already defined); (2×10^5 per well), also adding biotinylated P45 peptides (10 μM), alone or together with supernatant of the hybridomas: L243 anti-HLA-DR (ATCC Ref: HB-55), or W6/32 anti-Class I (ATCC Ref: HB-95) or the antibodies 33.1 anti-HLA-DQ or anti-HLA-DP B7/21, which were provided by Dr. Ghislaine Sterkers. All were diluted to (1/500) in a final volume of 100 μl of RPMI with 2.5% FBS.
(§3) % Inhibition=100×((Fp45+aHLA−Fblnk)/(Fp45−Fblnk))
(§4) where Fblnk is the fluorescence measured when the cells were cultured without adding peptide or antibodies (blank), Fp45 is the fluorescence measured when it was incubated with the biotinylated P45 peptides alone, and Fp45+aHLA is the fluorescence measured when it was measured with the biotinylated p45 together with the corresponding HLA antibodies.
(§5) All the assays were performed in triplicate.
(§6) In this way, these tests were repeated on the HLA-DR1, HLA-DR3, HLA-DR7, HLA-DR8, HLA-DR11 cell lines. The inhibition percentages obtained are set down in Table 2.

HLA-DP = assay: Inhibition of biotinylated p45 binding to cell lines by anti-HLA-DP antibody (B7/21); parameters: species or system human; conditions: biotinylated p45 10 μM
Protocol: as §1, §2, §3, §4, §5, §6

HLA-DQ = assay: Inhibition of biotinylated p45 binding to cell lines by anti-HLA-DQ antibody (33.1); parameters: species or system human; conditions: for Percentage of inhibition (%) aDQ: biotinylated p45 10 μM
Protocol: as §1, §2, §3, §4, §5, §6

Class I HLA = assay: Inhibition of biotinylated p45 binding to cell lines by anti-Class I antibody (W6/32); parameters: species or system human; conditions: biotinylated p45 10 μM
Protocol: as §1, §2, §3, §4, §5, §6

[7] = target: T2, HLA-DR8 (DRB1*0802) on OLGA cells (human); assay: flow cytometry on OLGA cells; inhibition by anti-HLA-DR antibody
T2 construct: whole, on cells; On the EBV-transformed B cell line OLGA (ECACC 88052100)

[8] = cell line BOLETH, DR4, DRB1*0401-DQB1*0302
[9] = cell line HOM2, DR1, DRB1*0101-DQB1*0501
[10] = cell line MOU, DR7, DRB1*0701-DQB1*0201
[11] = cell line OLGA, DR8, DRB1*0802-DQB1*0402
[12] = cell line RSH, DR3, DRB1*0302-DQB1*0402
[13] = cell line SWEIG, DR11, DRB1*11011-DQB1*0301

Percentage of inhibition (%) [1]: 0% | Percentage of inhibition (%) [2]: 6% | Percentage of inhibition (%) [3]: 13% | Percentage of inhibition (%) [4]: 1% | Percentage of inhibition (%) [5]: 5% | Percentage of inhibition (%) [6]: 0%
Molecule: W6/32 anti-Class I (ATCC Ref: HB-95) (antibody)

Molecule: biotinylated p45: p45 peptide conjugated with biotin (EZ-Link Sulfo-NHS-LC-Biotin) (FKYRMMMRMRAAA; also: biotin (EZ-Link Sulfo-NHS-LC-Biotin), site not given here)
Dose dependence of peptide binding (fluorescence) (HLA-DR4 cell line): dose-dependent | Binding of biotinylated peptide to HLA-DR1 (HLA-DR; HLA-DR1 cell line): bound to HLA-DR1 | Capacity of binding to HLA-DR (HLA-DR; all the cell lines (Table 2)): high capacity of binding | Percentage of inhibition (%) aDR (HLA-DR; [8]): 59% | Percentage of inhibition (%) aDR (HLA-DR; [9]): 78% | Percentage of inhibition (%) aDR (HLA-DR; [10]): 71% | Percentage of inhibition (%) aDR (HLA-DR; [11]): 92% | Percentage of inhibition (%) aDR (HLA-DR; [12]): 86% | Percentage of inhibition (%) aDR (HLA-DR; [13]): 89% | Percentage of inhibition (%) aDP (HLA-DP; [8]): 7% | Percentage of inhibition (%) aDP (HLA-DP; [9]): 23% | Percentage of inhibition (%) aDP (HLA-DP; [10]): 13% | Percentage of inhibition (%) aDP (HLA-DP; [11]): 4% | Percentage of inhibition (%) aDP (HLA-DP; [12]): 28% | Percentage of inhibition (%) aDP (HLA-DP; [13]): 0% | Capacity of binding to HLA-DQ (HLA-DQ; all the cell lines (Table 2)): high capacity of binding | Percentage of inhibition (%) aDQ (HLA-DQ; [8]): 75% | Percentage of inhibition (%) aDQ (HLA-DQ; [9]): 75% | Percentage of inhibition (%) aDQ (HLA-DQ; [10]): 98% | Percentage of inhibition (%) aDQ (HLA-DQ; [11]): 88% | Percentage of inhibition (%) aDQ (HLA-DQ; [12]): 98% | Percentage of inhibition (%) aDQ (HLA-DQ; [13]): 83% | Percentage of inhibition (%) aClI (Class I HLA; [8]): 1% | Percentage of inhibition (%) aClI (Class I HLA; [9]): 13% | Percentage of inhibition (%) aClI (Class I HLA; [10]): 0% | Percentage of inhibition (%) aClI (Class I HLA; [11]): 5% | Percentage of inhibition (%) aClI (Class I HLA; [12]): 6% | Percentage of inhibition (%) aClI (Class I HLA; [13]): 0%

binding result [7]: binds
B1: biotinylated p45 (peptide)
peptide: FKYRMMMRMRAAA
modifications: also: biotinylated (Sulfo-NHS-LC-Biotin), site not given here
notes: also called biotinylated P45 peptide; biotinylated P45 peptides
